Source: a compilation of properties of binary mixtures (doi:10.1016/j.fluid.2019.112447)

Assay: xn = mol fraction of the nth substance listed
Details: 101 kPa

CCOS(=O)(=O)[O-].CC[n+]1ccn(C)c1 + CCC(C)O
viscosity [mPa·s]
Details	x1 = 0.1032	x1 = 0.2027	x1 = 0.2937	x1 = 0.3936	x1 = 0.4906	x1 = 0.5916	x1 = 0.6944	x1 = 0.7957	x1 = 0.8916	x1 = 1
298.15 K	4.62	–	9.73	14.02	19.79	28.15	–	–	71.7	96.2
303.15 K	4.29	–	9.16	12.67	–	24	33	44	–	75.9
308.15 K	3.46	5.31	7.53	–	14.29	20.49	27.81	36.7	–	60.7
313.15 K	2.94	–	6.51	–	13.06	–	23.65	30.7	38.7	–
318.15 K	2.56	–	5.76	8.37	11.43	15.38	20.32	26.1	32.5	40.9
323.15 K	2.03	3.36	–	7.36	10.09	13.57	17.64	22.35	27.4	33.8

CCC(C)O (centres undefined) + CCOS(=O)(=O)[O-].CC[n+]1ccn(C)c1
x2 = 0
Details	viscosity [mPa·s]
298.15 K	2.58
303.15 K	2.27
313.15 K	1.77
318.15 K	1.58
323.15 K	1.41

CCC(C)O (centres undefined) + CC[n+]1ccn(C)c1.O=S(=O)([O-])C(F)(F)F
x2 = 0
Details	viscosity [mPa·s]
298.15 K	2.58
303.15 K	2.27
313.15 K	1.77
318.15 K	1.58
323.15 K	1.41

CC[n+]1ccn(C)c1.O=S(=O)([O-])C(F)(F)F + CCC(C)O
viscosity [mPa·s]
Details	x1 = 0.1092	x1 = 0.1945	x1 = 0.2945	x1 = 0.3938	x1 = 0.4988	x1 = 0.5952	x1 = 0.6907	x1 = 0.7986	x1 = 0.903	x1 = 1
298.15 K	3.95	5.32	6.57	7.9	10.59	15.33	22.63	–	39.43	–
303.15 K	3.47	4.65	5.76	–	–	–	19.37	–	33.21	38.31
308.15 K	3.09	4.1	5.07	–	8.23	11.65	16.75	22.22	–	32.28
313.15 K	2.75	–	4.51	5.5	–	–	–	19.09	24.05	–
318.15 K	2.46	3.24	4.03	4.94	–	9.13	12.84	16.7	–	23.86
323.15 K	2.21	2.9	3.61	4.44	5.91	8.17	–	14.66	–	20.75
